In PubChem BioAssay (NCI):
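Cultured in 96-well plates, cells were exposed to test compound for 48 hours across five concentrations. GI50: concentration for 50% inhibition of growth. Definition used: TGI = concentration required for complete inhibition of growth.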 *1 amine or outer side, *2 acyl side, *3 side chain or, on linkers, in order; H or OH if unused. Where a SMILES comes first, the peptide text is derived from it. [ ]: non-standard residue; d: D form. ξ: configuration not given here. X21 = CC[C@@H](C)C(N[*:1])C(=O)[*:2]; ξR = N=C(N)NCCCC(N)C(=O)O; ξI = CCC(C)C(N)C(=O)O; ξL = CC(C)CC(N)C(=O)O; ξK = NCCCCC(N)C(=O)O; ξV = CC(C)C(N)C(=O)O; ξA = CC(N)C(=O)O

Columns and labels:
Test in all cases: growth of human tumour cells (NCI), 48 h
[1] = system: OVCAR-8 ovarian
[2] = system: LOX IMVI melanoma
[3] = system: SK-MEL-2 melanoma
[4] = system: SR leukemia
[5] = system: IGROV1 ovarian
[6] = system: NCI-H226 lung
[7] = system: SK-MEL-28 melanoma
[8] = system: 786-0 renal
[9] = system: MDA-MB-231 breast
[10] = system: DU-145 prostate

COc1cc(/C=C(\OC(C)=O)c2ccc3c(c2)OCO3)cc(OC)c1OC
TGI [1]: 33.9 µM
TGI [2]: 31.3 µM
TGI [3]: 57.9 µM
TGI [4]: > 100 µM
TGI [5]: 33.1 µM
TGI [6]: 30.7 µM
TGI [7]: 41.9 µM
TGI [8]: > 100 µM

CCOC(=O)/C(=C\c1ccc[nH]1)C(=O)c1ccccc1
TGI [1]: > 100 µM
TGI [2]: > 100 µM
TGI [3]: > 100 µM
TGI [4]: > 100 µM
TGI [6]: > 100 µM
TGI [7]: > 100 µM
TGI [8]: > 100 µM

CC(C)C(=O)/C=C/c1ccc(Cl)c(Cl)c1
TGI [1]: 45.8 µM
TGI [3]: 31.9 µM
TGI [4]: 56.8 µM
TGI [5]: 40.4 µM
TGI [7]: 35.3 µM
TGI [8]: 27.6 µM

Cc1nc(C(N)=S)sc1C(=O)C/C(=N/N)C(=O)Nc1ccc(Cl)cc1
TGI [1]: > 100 µM
TGI [2]: > 100 µM
TGI [3]: > 100 µM
TGI [4]: > 100 µM
TGI [5]: > 100 µM
TGI [6]: > 100 µM
TGI [9]: > 100 µM
TGI [7]: > 100 µM
TGI [8]: > 100 µM

CCC(C)C1NC(=O)C(CC(C)C)NC(=O)C(C)NC(=O)C(C(C)C)NC(=O)C(CCCCN)NC(=O)C(CC(C)C)NC(=O)C(C(C)C)NC(=O)[C@H](C)NC(=O)C(C(C)CC)NC(=O)C(CCCN=C(N)N)NC(=O)C(CCCCN)NC(=O)C(CCCN=C(N)N)NC(=O)C(CCCCN)NC(=O)C([C@H](C)CC)NC(=O)C(CCCCN)NC1=O (some centres undefined) (cyclo(A[ξV][ξL][ξK][ξV][ξA][ξL][ξI][ξK][X21][ξK][ξR][ξK][ξR][ξI]))
GI50 [1]: 1480 nM
TGI [1]: 4.87 µM
GI50 [2]: 1620 nM
TGI [2]: 3.03 µM
GI50 [3]: 1720 nM
TGI [3]: 4.09 µM
GI50 [4]: 1.48 µM
TGI [4]: 4.1 µM
GI50 [5]: 1620 nM
TGI [5]: 4.55 µM
GI50 [10]: 1810 nM
TGI [10]: 4.75 µM
GI50 [9]: 1.62 µM
TGI [9]: 3.73 µM
GI50 [7]: 1820 nM
TGI [7]: 4.34 µM
GI50 [8]: 1620 nM
TGI [8]: 3.17 µM

CCOC(=O)CSc1[nH]c(NC(=S)Nc2ccccc2)c(C(N)=O)c1C(N)=O
TGI [1]: > 10 µM
TGI [2]: > 10 µM
TGI [4]: > 10 µM
TGI [5]: > 10 µM
TGI [10]: > 10 µM
TGI [9]: > 10 µM
TGI [7]: > 10 µM
TGI [8]: > 10 µM

O=C1CS/C(=N\S(=O)(=O)c2ccc(N3N=C4c5ccccc5CC4C3c3ccc(Cl)cc3)cc2)N1c1ccccc1 (centres undefined)
GI50 [1]: 34600 nM
TGI [1]: > 100 µM
GI50 [2]: 23400 nM
TGI [2]: 49.1 µM
GI50 [3]: > 100000 nM
TGI [3]: > 100 µM
GI50 [4]: 11.4 µM
TGI [4]: 28.1 µM
GI50 [5]: 37800 nM
TGI [5]: > 100 µM
GI50 [6]: 45.1 µM
TGI [6]: > 100 µM
GI50 [10]: 33900 nM
TGI [10]: > 100 µM
GI50 [9]: 86 µM
TGI [9]: > 100 µM
GI50 [8]: 46600 nM
TGI [8]: > 100 µM

O=C(COc1cccc(/C=C2\CSc3ccccc3C2=O)c1)c1ccc(Cl)cc1
GI50 [1]: 2530 nM
TGI [1]: 6.81 µM
GI50 [2]: 1390 nM
TGI [2]: 2.73 µM
GI50 [3]: 1760 nM
TGI [3]: 3.45 µM
GI50 [5]: 2020 nM
TGI [5]: 4.26 µM
GI50 [6]: 4.43 µM
TGI [6]: 16 µM
GI50 [10]: 2310 nM
TGI [10]: 5.61 µM
GI50 [9]: 4.48 µM
TGI [9]: 14.8 µM
GI50 [7]: 1780 nM
TGI [7]: 3.46 µM
GI50 [8]: 1400 nM
TGI [8]: 2.89 µM

O=[N+]([O-])c1ccc2nc3ccccc3cc2c1
TGI [1]: 2.58 µM
TGI [2]: 6.91 µM
TGI [3]: 27.8 µM
TGI [5]: 6.8 µM
TGI [6]: 8.97 µM
TGI [10]: 8.12 µM
TGI [9]: 8.64 µM
TGI [7]: 10.7 µM
TGI [8]: 14 µM

CC1(O)CCC2(C#N)CCC1C2O (centres undefined)
TGI [1]: > 100 µM
TGI [2]: 41.9 µM
TGI [3]: > 100 µM
TGI [4]: 45.4 µM
TGI [5]: > 100 µM
TGI [6]: > 100 µM
TGI [7]: > 100 µM
TGI [8]: > 100 µM
